Reference: ChEMBL document CHEMBL1154809, “Conventional and microwave assisted synthesis of small molecule based biologically active heterocyclic amidine derivatives” (2010)
Activity calls are given as the source filed them. The calls are words filed in the database; no cut-off is given here.

How the values were obtained:
Rattus norvegicus = experiment: Antiinflammatory activity against carrageenan-induced paw oedema in Charles Foster albino rat at 50 mg/kg, po administered 30 mins before carrageenan challenge measured after 1 to 3 hrs by water plethysmometer; assay type: functional
HepG32 = experiment: Anticancer activity against human […] cells at 10 uM after 48 hrs by sulforhodamine B assay; assay type: functional, cell-based
HOP-62 = experiment: Anticancer activity against human HOP62 cells at 10 uM after 48 hrs by sulforhodamine B assay; assay type: functional, cell-based
DU-145 = experiment: Anticancer activity against human DU145 cells at 10 uM after 48 hrs by sulforhodamine B assay; assay type: functional, cell-based
HCT-15 = experiment: Anticancer activity against human HCT15 cells at 10 uM after 48 hrs by sulforhodamine B assay; assay type: functional, cell-based
IMR-32 = experiment: Anticancer activity against human IMR32 cells at 10 uM after 48 hrs by sulforhodamine B assay; assay type: functional, cell-based
A549 = experiment: Anticancer activity against human A549 cells at 10 uM after 48 hrs by sulforhodamine B assay; assay type: functional, cell-based

Row | SMILES | Activity (Rattus norvegicus) [%] | Activity (HepG32) | Activity (HOP-62) | Activity (DU-145) | Activity (HCT-15) | Activity (IMR-32) | Activity (A549)
1 | CC(C)Cc1ccc(C(C)C(=O)O)cc1 (stereo unspecified) [IBUPROFEN] | 39 | inactive | inactive | inactive | inactive | inactive | inactive
2 | N/C(=N/CCCn1ccnc1)c1ccccn1 | 18.8 | inactive | inactive | inactive | inactive | inactive | inactive
3 | N/C(=N/Cc1ccncc1)c1ccccn1 | 28.2 | inactive | inactive | inactive | inactive | inactive | inactive
4 | N/C(=N/CCc1c[nH]c2ccccc12)c1ccccn1 | 23.6 | inactive | inactive | inactive | inactive | inactive | inactive
5 | N/C(=N/CCCn1ccnc1)c1ccncc1 | 10 | inactive | inactive | inactive | inactive | inactive | inactive
6 | N/C(=N/CCc1c[nH]c2ccccc12)c1ccncc1 | 28.2 | inactive | inactive | inactive | inactive | inactive | inactive
7 | N/C(=N/Cc1ccco1)c1ccncc1 | 15.2 | inactive | inactive | inactive | inactive | inactive | inactive
8 | N/C(=N/Cc1ccco1)c1cnccn1 | 36.6 | inactive | inactive | inactive | inactive | inactive | inactive
9 | N/C(=N/Cc1ccccn1)c1ccncc1 | 33.8 | inactive | inactive | inactive | inactive | inactive | inactive
10 | N/C(=N/CCCn1ccnc1)c1cnccn1 | 21.8 | inactive | inactive | inactive | inactive | inactive | inactive
11 | N/C(=N/CCc1c[nH]c2ccccc12)c1cnccn1 | 23.9 | inactive | inactive | inactive | inactive | inactive | inactive
12 | N/C(=N/Cc1ccncc1)c1cnccn1 | 32 | inactive | inactive | inactive | inactive | inactive | inactive
13 | N/C(=N/CCc1c[nH]cn1)c1ccccn1 | 26.8 | inactive | inactive | inactive | inactive | inactive | inactive
14 | N/C(=N/CCc1c[nH]cn1)c1cnccn1 | 25.4 | inactive | inactive | inactive | inactive | inactive | inactive
15 | N/C(=N/Cc1ccco1)c1ccccn1 | 28.7 | inactive | inactive | inactive | inactive | inactive | inactive
16 | N/C(=N/Cc1ccccn1)c1cnccn1 | 0 | inactive | inactive | inactive | inactive | inactive | inactive
17 | N/C(=N/Cc1ccncc1)c1ccncc1 | 31 | inactive | inactive | inactive | inactive | inactive | inactive
18 | N/C(=N/CCc1c[nH]cn1)c1ccncc1 | 22.1 | inactive | inactive | inactive | inactive | inactive | inactive
